Several values for one entry are separate records, joined by “and”; a condition that tells them apart may be missing. Equal values may be shown once.
Key:
[1] = molecular target: T1, human carbonic anhydrase II (Homo sapiens, UniProt P00918); assay: Multiparametric surface plasmon resonance (MP-SPR) interaction kinetics with immobilized hCAII; format: binding; conditions: MP-SPR, 25 °C, 1:1 model
T1 construct: purchased Sigma
Description: All MP-SPR measurements were conducted at 25 °C using carboxymethyl dextran hydrogel-coated (CMD-3DM) sensors (BioNavis) and were based on the protocol described by Rogez-Florent et al.[22]
Human carbonic anhydrase isoenzyme II (Sigma) was immobilized using a standard amine coupling procedure with the Amine Coupling Kit (BioNavis) and phosphate buffered saline (PBS) (20 mM phosphate buffer, 150 mM NaCl, pH 7.4) as the background buffer. Before immobilization, the sensor surface was cleaned with 2 M sodium chloride and 10 mM sodium hydroxide for 6 min at a flow rate of 30 μL/min. Then, a constant flow rate of 10 μL/min was maintained throughout the immobilization steps. The surface was activated for 7 min with 200 mM 1-ethyl-3-(3-(dimethylamino)propyl)-carbodiimide (EDC) and 50 mM N-hydroxysuccinimide, immediately followed by a 5 min injection of 45 μg/mL hCAII solution in 10 mM acetate buffer, pH 5.5. In the reference flow channel, no enzyme was immobilized. Residual activated groups of the dextran matrix were deactivated by a 7 min injection of 1 M ethanolamine HCl, pH 8.3.
For analyzing CAIs, 1% (v/v) DMSO in PBS, pH 7.4, was used as a running buffer. All CAIs were dissolved in 100% DMSO and stored as 50 mM stock solutions. These stock solutions were further diluted with the running buffer and analyzed using a 3-fold (3–1000 nM) dilution series. […] Each analyte was injected at a flow rate of 100 μL/min, with an association time of 2 min and a dissociation time of 10 min. […] Seven concentrations were measured for each CAI per cycle, and a “wash all” step with running buffer was performed at the end of each cycle to minimize the carry over effects. Each CAI were assayed in triplicate across three independent experiments.
The acquired data were processed using MP-SPR Navi Data Viewer software (version 6.7.0.1, BioNavis) employing the weighted centroid method for determining the SPR peak angular position. Signals from the reference flow channel were subtracted from the corresponding signals of the flow channel containing immobilized hCAII. The moment of sample injection was selected as the zero-time point, where both the time and MP-SPR response were set to zero. Processed data were globally fitted to a simple 1:1 interaction model using TraceDrawer software (version 1.9.2, Ridgeview Instruments AB, Sweden) to obtain kinetic parameters.

[2] = Ocular pharmacokinetics in pigmented rats (iris-ciliary body, 3H-A01); format: in vivo, rat; conditions: for bound fraction: pigmented tissue
From the text: Eight albino rats (RccHan/Wist) and 18 pigmented rats (HsdOla/LH) were obtained from Envigo Laboratories B.V. (The Netherlands) and were used in pharmacokinetic experiments. Additional 13 albino and 13 pigmented rats were used in generation of the analytical standards. Young adult (3–4 months; 340–445 g) rats were used.
To conduct the pharmacokinetic study, bromo-containing CAI A15 (molecular structure presented in Table 1) was conveniently converted into [^3H]-A01 through catalytic dehalogenation in tritium gas. A15 (3.05 mg, 8.2 μmol) was dissolved in dimethylformamide (0.3 mL) and exposed to 99 mbar of tritium gas in a tritium manifold system for 1.5 h in the presence of 10% palladium on carbon (0.57 mg). Following filtration, the reaction mixture underwent double lyophilization with 1 mL ethanol to eliminate labile tritium. […] The crude material was purified via high-performance liquid chromatography, employing a Reprosil-Pur C18-HD column (250 × 10 mm, 5 μm), with a mobile phase comprising 40% acetonitrile in 50 mM ammonium hydrogen carbonate. Purified fractions were subsequently combined, subjected to solid-phase extraction, and eluted with ethanol. Radiochemical analysis indicated a purity exceeding 97%, with a molar activity of 0.29 TBq/mmol (7.9 Ci/mmol) and a total activity of 850 MBq (23 mCi). The solution of 1% A01 (10 mg/mL) was prepared similarly as in the IOP study (see Table 1) except that the solution contained also 72 μg/mL of [^3H]–A01 (specific activity 27.21 mCi/mg). The solution was prepared freshly for each experiment.
Seven μL of A01 solution (10 mg/mL including 72 μg/mL of ^3H–A01) was topically applied to both eyes of albino and pigmented rats. Rats were euthanized with carbon dioxide and cervical dislocation. The eyes (n = 4) of albino rats were collected 0.5, 2, 4, and 7 h after treatment. The eyes of pigmented rats were dissected 0.5, 2, 4, 7, 24, 48, 72, 144, and 240 h after eye drop instillation. The eyes were enucleated and dissected immediately after euthanasia. Iris-ciliary body was dissected, snap frozen on dry ice, and stored at −80 °C until analysis. The analyses were conducted within 24 h from tissue dissection.
Bound and unbound radioactivity of tritiated A01 was determined from dissected iris-ciliary body samples. First, the tissues were mechanically homogenized and diluted with 0.9% sodium chloride (weight ratio 35:1). Then, cellular unbound A01 was released from the iris-ciliary body cells by freezing and thawing the solutions three times with dry ice and a water bath (37 °C). Thereafter, the supernatant and pellet were separated by centrifuging the samples for 10 min at 13,000 rpm. The pellets were dissolved by using 60 min incubation in 100 μL of Solvable (PerkinElmer, Waltham, MA, USA). The samples were then bleached with 10 μL of hydrogen peroxide for 30 min. The pellet volume was calculated as the difference between the total and supernatant volumes.
After subtracting the background radioactivity, the measured net counts per minute (cpm) were converted to disintegrations per minute (dpm) taking into account color quenching and device efficiency. Standard curves were generated for each matrix (albino and pigmented supernatants and pellets; Appendix Figure 1). Finally, unbound, bound, and total A01 concentrations (ng/mg) in the iris-ciliary body of the […] were calculated using radioactivity (nCi) per μg of instilled A01 in the eye drops. Signal to noise ratios of measured pellet and supernatant samples in liquid scintillation counting are shown in Appendix Table 3.

[3] = iris-ciliary body, single topical eye drop

ka [1]: 0.57 ± 0.33 10^6 M^–1 s^–1 | kd [1]: 1.45 ± 0.15 10^–2 s^–1 | Kd ([1]; read-out: KD): 36.9 ± 23.4 nM | concentration at 2 h ([2]; HsdOla/LH (pigmented), rat, topical, 7 µL of 10 mg/mL solution per eye, pigmented iris-ciliary body, 2 h after administration, read-out: bound concentration at 2 h): ~500 ng/g | concentration at 10 days ([2]; HsdOla/LH (pigmented), rat, topical, 7 µL of 10 mg/mL solution per eye, pigmented iris-ciliary body, 10 days, read-out: bound concentration C10 days): 20 ng/g | exposure ratio (AUCpigm/AUCalbino), bound A01 ([2]; iris-ciliary body): 150 and 149.8 | exposure ratio (AUCpigm/AUCalbino), total A01 ([2]; iris-ciliary body): 18 | exposure ratio (AUCpigm/AUCalbino), unbound A01 ([2]; iris-ciliary body): 9.3 | AUC0-last in pigmented tissue, bound A01 [2, 3]: 12.73 (ng/mg) × h | AUC0-last in pigmented tissue, total A01 [2, 3]: 24.72 (ng/mg) × h | AUC0-last in pigmented tissue, unbound A01 [2, 3]: 11.98 (ng/mg) × h | tmax (bound drug) ([2]; pigmented eyes): 24 h | tmax(total drug) ([2]; pigmented eyes): 24 h | Cmax, total concentration ([2]; pigmented iris-ciliary body, at 24 h): 0.36 ng/mg | time over which slow elimination continued ([2]; pigmented iris-ciliary body, total drug): ≥ 10 days | time over which unbound levels were extended ([2]; pigmented iris-ciliary body, below quantitation limit at 6 days): at least 3 days | unbound concentrations ([2]; pigmented rat iris-ciliary body): 10 to 800 nM | bound fraction ([2]; for 72 h): 37–62% | bound fraction ([2]; later than 72 h): about 90%
SMILES: C/C(=N\Nc1ccc(S(N)(=O)=O)cc1)c1cccnc1 [A01]

Reference: PMC11795524, “Melanin-Binding-Based Discovery of Topically Instilled Carbonic Anhydrase Inhibitors for Targeted Delivery and Prolonged Action in the Eye” (Molecular Pharmaceutics, 2025)
